Experimental data from PMC4032265 (PLoS ONE, 2014).
Like-named read-outs stand apart in the source and are kept apart here.

Tests used:
[1] = molecular target: H4 histaminergic receptor (Homo sapiens, UniProt Q9H3N8); test: PDSP radioligand binding, H4; settings: read-out: % inhibition at 10 µM
[2] = molecular target: 5HT6 serotonergic receptor (Homo sapiens, UniProt P50406); test: PDSP radioligand binding, 5HT6; settings: read-out: % inhibition at 10 µM
[3] = molecular target: T1, M4 muscarinic acetylcholine receptor (Homo sapiens, UniProt P08173); test: PDSP radioligand binding, M4; settings: read-out: % inhibition at 10 µM
T1 sequence (P08173 1-479): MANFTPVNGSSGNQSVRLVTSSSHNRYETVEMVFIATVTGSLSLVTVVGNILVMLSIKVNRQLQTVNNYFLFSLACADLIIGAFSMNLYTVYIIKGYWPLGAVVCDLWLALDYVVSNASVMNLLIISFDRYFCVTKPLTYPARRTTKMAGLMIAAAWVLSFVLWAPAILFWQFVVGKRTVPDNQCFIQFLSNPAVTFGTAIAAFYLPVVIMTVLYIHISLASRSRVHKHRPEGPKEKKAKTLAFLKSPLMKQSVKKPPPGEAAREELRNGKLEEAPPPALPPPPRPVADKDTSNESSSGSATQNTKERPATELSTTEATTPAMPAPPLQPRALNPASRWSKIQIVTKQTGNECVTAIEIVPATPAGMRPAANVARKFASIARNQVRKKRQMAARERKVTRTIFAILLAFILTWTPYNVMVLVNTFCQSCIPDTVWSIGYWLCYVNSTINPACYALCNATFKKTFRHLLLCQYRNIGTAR

[4] = molecular target: H3 histaminergic receptor (Homo sapiens, UniProt Q9Y5N1); test: PDSP radioligand binding, H3; settings: read-out: % inhibition at 10 µM
Sequence of H3 histaminergic receptor (Q9Y5N1 whole entry): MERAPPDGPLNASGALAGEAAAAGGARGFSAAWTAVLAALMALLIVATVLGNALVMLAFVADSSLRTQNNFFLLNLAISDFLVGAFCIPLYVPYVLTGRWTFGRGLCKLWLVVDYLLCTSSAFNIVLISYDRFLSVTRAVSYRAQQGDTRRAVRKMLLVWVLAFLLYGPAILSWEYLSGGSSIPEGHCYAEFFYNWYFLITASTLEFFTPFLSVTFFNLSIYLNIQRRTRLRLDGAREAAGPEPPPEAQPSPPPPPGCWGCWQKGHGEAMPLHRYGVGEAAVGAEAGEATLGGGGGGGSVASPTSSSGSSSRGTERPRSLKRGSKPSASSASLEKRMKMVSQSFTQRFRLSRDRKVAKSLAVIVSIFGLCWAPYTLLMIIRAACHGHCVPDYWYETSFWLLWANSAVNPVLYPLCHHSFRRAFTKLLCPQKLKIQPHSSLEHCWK

[5] = molecular target: peripheral benzodiazepine receptor (PBR) (Rattus norvegicus, UniProt P16257); test: PDSP radioligand binding, PBR; settings: for inhibition at 10 µM: read-out: % inhibition at 10 µM; for Ki: full curves, n = 2
[6] = molecular target: T2, M1 muscarinic acetylcholine receptor (Homo sapiens, UniProt P11229); test: PDSP radioligand binding, M1; settings: read-out: % inhibition at 10 µM
T2 sequence (P11229 1-460): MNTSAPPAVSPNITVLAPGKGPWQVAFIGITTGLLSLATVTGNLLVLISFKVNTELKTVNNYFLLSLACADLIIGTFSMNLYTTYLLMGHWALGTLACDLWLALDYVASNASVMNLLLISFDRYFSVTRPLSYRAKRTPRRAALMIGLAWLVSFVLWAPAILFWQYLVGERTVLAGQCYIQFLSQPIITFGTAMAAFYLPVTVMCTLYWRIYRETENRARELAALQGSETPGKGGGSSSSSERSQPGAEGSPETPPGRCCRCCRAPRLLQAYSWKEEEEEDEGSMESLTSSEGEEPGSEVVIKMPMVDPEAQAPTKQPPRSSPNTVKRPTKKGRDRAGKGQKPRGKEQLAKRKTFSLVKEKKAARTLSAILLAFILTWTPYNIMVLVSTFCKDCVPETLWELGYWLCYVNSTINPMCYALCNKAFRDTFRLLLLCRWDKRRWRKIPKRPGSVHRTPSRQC

[7] = molecular target: T3, α1D adrenergic receptor (Homo sapiens, UniProt P25100); test: PDSP radioligand binding, α1D; settings: read-out: % inhibition at 10 µM
T3 sequence (P25100 1-572): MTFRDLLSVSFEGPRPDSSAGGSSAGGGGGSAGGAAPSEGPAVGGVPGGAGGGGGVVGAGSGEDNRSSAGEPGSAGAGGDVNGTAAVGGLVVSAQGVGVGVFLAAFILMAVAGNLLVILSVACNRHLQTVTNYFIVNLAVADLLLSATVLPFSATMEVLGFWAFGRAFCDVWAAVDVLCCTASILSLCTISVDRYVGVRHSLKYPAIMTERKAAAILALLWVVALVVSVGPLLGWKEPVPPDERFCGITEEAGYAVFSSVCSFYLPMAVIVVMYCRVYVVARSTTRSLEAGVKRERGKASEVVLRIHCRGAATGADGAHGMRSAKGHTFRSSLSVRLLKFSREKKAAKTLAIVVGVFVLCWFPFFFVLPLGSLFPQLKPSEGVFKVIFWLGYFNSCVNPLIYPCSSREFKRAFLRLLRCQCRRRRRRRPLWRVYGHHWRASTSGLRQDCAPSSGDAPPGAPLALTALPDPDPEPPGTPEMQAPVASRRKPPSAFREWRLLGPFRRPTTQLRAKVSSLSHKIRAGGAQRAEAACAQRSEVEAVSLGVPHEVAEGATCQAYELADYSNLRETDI

[8] = molecular target: 5HT5A serotonergic receptor (Homo sapiens, UniProt P47898); test: PDSP radioligand binding, 5HT5A; settings: for inhibition at 10 µM: read-out: % inhibition at 10 µM
Sequence of 5HT5A serotonergic receptor (P47898 whole entry): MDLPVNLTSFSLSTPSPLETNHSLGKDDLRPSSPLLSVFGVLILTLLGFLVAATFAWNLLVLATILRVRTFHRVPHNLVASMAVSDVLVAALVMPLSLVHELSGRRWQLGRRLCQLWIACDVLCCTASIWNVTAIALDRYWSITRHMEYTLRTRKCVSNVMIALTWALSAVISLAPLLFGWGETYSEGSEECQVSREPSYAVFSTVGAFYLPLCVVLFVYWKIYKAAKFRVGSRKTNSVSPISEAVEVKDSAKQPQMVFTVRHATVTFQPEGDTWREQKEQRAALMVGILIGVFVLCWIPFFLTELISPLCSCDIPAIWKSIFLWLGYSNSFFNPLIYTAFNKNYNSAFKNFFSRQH

[9] = molecular target: T4, σ2 receptor (Rattus norvegicus, UniProt Q5U3Y7); test: PDSP radioligand binding, σ2; settings: for inhibition at 10 µM: read-out: % inhibition at 10 µM; for Ki: full curves, n = 2
T4 sequence (Q5U3Y7 1-176): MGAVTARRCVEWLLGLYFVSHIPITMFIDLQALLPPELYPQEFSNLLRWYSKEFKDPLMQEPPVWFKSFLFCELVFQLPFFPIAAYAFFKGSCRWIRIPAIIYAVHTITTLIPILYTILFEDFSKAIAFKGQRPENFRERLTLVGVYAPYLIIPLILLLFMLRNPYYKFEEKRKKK

[10] = molecular target: T5, α1B adrenergic receptor (Homo sapiens, UniProt P35368); test: PDSP radioligand binding, α1B; settings: read-out: % inhibition at 10 µM
T5 sequence (P35368 1-520): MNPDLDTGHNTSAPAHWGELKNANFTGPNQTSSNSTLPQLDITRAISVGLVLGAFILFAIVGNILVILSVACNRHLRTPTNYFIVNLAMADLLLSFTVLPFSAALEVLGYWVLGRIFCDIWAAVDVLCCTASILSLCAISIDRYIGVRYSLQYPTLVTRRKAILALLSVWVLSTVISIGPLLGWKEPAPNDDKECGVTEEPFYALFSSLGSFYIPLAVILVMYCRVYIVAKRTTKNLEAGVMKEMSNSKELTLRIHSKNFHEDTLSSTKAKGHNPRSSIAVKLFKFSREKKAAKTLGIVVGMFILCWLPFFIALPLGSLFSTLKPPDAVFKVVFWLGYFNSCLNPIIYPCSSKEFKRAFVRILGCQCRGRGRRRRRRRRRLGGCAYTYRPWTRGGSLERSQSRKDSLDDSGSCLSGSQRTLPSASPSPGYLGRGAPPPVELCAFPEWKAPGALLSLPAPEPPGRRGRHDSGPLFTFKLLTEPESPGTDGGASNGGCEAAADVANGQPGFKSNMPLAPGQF

[11] = molecular target: 5HT2B serotonergic receptor (Homo sapiens, UniProt P41595); test: PDSP radioligand binding, 5HT2B; settings: for Ki: full concentration-response curves, n = 3-6 unless noted; for inhibition at 10 µM: read-out: % inhibition at 10 µM
Sequence of 5HT2B serotonergic receptor (P41595 whole entry): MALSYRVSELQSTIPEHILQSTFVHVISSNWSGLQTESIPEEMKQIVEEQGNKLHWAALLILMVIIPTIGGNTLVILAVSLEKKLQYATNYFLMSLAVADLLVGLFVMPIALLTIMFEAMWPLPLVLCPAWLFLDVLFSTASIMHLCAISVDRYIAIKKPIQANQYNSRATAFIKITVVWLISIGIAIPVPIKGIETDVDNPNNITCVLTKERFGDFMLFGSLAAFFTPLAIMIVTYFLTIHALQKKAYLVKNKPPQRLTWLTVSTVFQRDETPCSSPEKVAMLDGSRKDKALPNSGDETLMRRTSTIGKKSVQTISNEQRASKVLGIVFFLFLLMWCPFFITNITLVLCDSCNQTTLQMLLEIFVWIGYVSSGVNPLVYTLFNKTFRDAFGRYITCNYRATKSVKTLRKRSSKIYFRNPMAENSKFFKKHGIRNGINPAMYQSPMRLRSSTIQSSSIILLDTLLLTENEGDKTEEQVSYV

[12] = test system: GABAA receptor; test: PDSP radioligand binding, GABAA; settings: single concentration 10 µM

Sequence of 5HT6 serotonergic receptor (P50406 whole entry): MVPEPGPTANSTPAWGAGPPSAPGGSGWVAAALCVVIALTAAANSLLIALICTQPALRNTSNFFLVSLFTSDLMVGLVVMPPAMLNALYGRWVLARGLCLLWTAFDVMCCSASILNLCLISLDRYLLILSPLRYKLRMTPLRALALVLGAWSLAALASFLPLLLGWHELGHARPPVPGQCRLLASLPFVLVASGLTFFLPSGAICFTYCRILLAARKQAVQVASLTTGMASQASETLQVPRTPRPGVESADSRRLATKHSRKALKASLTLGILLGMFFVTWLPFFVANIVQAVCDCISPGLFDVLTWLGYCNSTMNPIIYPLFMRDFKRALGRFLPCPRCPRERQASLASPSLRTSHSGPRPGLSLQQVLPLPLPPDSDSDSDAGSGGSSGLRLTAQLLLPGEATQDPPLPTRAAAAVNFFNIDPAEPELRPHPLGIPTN
Sequence of H4 histaminergic receptor (Q9H3N8 whole entry): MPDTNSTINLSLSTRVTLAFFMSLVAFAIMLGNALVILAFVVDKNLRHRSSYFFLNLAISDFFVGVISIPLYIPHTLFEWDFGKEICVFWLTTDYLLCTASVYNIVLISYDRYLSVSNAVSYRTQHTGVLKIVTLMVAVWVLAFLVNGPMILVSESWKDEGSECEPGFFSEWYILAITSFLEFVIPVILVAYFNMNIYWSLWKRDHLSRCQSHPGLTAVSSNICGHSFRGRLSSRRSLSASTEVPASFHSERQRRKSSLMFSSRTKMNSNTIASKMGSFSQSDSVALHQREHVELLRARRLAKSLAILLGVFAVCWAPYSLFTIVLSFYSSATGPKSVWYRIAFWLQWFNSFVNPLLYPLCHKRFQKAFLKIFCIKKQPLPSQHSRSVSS

Clc1cccc(CNc2nc(Cl)nc3[nH]cnc23)c1 [Compound 9]
inhibition at 10 µM ([1]; single concentration 10 µM): 5%
inhibition at 10 µM ([2]; single concentration 10 µM): 31%
inhibition at 10 µM ([3]; single concentration 10 µM): 0%
inhibition at 10 µM ([4]; single concentration 10 µM): 3%
inhibition at 10 µM ([5]; single concentration 10 µM): 8%
inhibition at 10 µM ([6]; single concentration 10 µM): 12%
inhibition at 10 µM ([7]; single concentration 10 µM): 0%
Ki [8]: 4490 nM
inhibition at 10 µM ([8]; single concentration 10 µM): 38%
inhibition at 10 µM ([9]; single concentration 10 µM): 0%
inhibition at 10 µM ([10]; single concentration 10 µM): 0%
Ki [11]: 1780 ± 350 nM
inhibition at 10 µM ([11]; single concentration 10 µM): 55%
% inhibition at 10 µM [12]: 8%

O[C@@H]1[C@H](O)[C@@H]2C[C@@H]2[C@H]1n1cnc2c(NCc3cccc(Cl)c3)nc(C#Cc3ccc(F)c(F)c3)nc21 [Compound 6]
inhibition at 10 µM ([2]; single concentration 10 µM): 0%
inhibition at 10 µM ([3]; single concentration 10 µM): 32%
inhibition at 10 µM ([4]; single concentration 10 µM): 0%
Ki [5]: 1700 nM
inhibition at 10 µM ([5]; single concentration 10 µM): 63%
inhibition at 10 µM ([6]; single concentration 10 µM): 3%
inhibition at 10 µM ([7]; single concentration 10 µM): 5%
inhibition at 10 µM ([8]; single concentration 10 µM): 15%
Ki [9]: 2940 ± 1500 nM
inhibition at 10 µM ([9]; single concentration 10 µM): 69%
inhibition at 10 µM ([10]; single concentration 10 µM): 19%
inhibition at 10 µM ([11]; single concentration 10 µM): 34%

CNC(=O)[C@@]12C[C@@H]1[C@@H](n1cnc3c(NCc4cccc(Cl)c4)nc(C#Cc4ccc(F)c(F)c4)nc31)[C@H](O)[C@@H]2O [Compound 1]
inhibition at 10 µM [1]: 17%
inhibition at 10 µM [2]: 0%
inhibition at 10 µM [3]: 20%
inhibition at 10 µM [4]: 8%
inhibition at 10 µM [5]: 71%
inhibition at 10 µM [6]: 9%
inhibition at 10 µM [7]: 3%
inhibition at 10 µM [8]: 3%
Ki [9]: 908 ± 294 nM
inhibition at 10 µM [9]: 0%
inhibition at 10 µM [10]: 44%
Ki [11]: 2580 ± 220 nM
inhibition at 10 µM [11]: 34%
% inhibition at 10 µM [12]: 0%

CNC(=O)[C@@]12C[C@@H]1[C@@H](n1cnc3c(NC)nc(C#Cc4ccc(F)c(F)c4)nc31)[C@H](O)[C@@H]2O [Compound 5]
inhibition at 10 µM ([2]; single concentration 10 µM): 15%
inhibition at 10 µM ([3]; single concentration 10 µM): 0%
inhibition at 10 µM ([4]; single concentration 10 µM): 0%
inhibition at 10 µM ([5]; single concentration 10 µM): 25%
inhibition at 10 µM ([6]; single concentration 10 µM): 0%
inhibition at 10 µM ([7]; single concentration 10 µM): 0%
inhibition at 10 µM ([8]; single concentration 10 µM): 5%
inhibition at 10 µM ([9]; single concentration 10 µM): 33%
inhibition at 10 µM ([10]; single concentration 10 µM): 11%
inhibition at 10 µM [11]: 4%
% inhibition at 10 µM [12]: 0%

CNC(=O)[C@@]12C[C@@H]1[C@@H](n1cnc3c(NCc4cccc(Cl)c4)nc(C#Cc4ccccc4Cl)nc31)[C@H](O)[C@@H]2O [Compound 3]
inhibition at 10 µM ([1]; single concentration 10 µM): 9%
inhibition at 10 µM ([2]; single concentration 10 µM): 59%
inhibition at 10 µM ([3]; single concentration 10 µM): 8%
inhibition at 10 µM ([4]; single concentration 10 µM): 0%
Ki [5]: 344 ± 149 nM
inhibition at 10 µM ([5]; single concentration 10 µM): 87%
inhibition at 10 µM ([6]; single concentration 10 µM): 0%
inhibition at 10 µM ([7]; single concentration 10 µM): 20%
Ki [8]: 6300 nM
inhibition at 10 µM ([8]; single concentration 10 µM): 29%
inhibition at 10 µM ([9]; single concentration 10 µM): 42%
inhibition at 10 µM ([10]; single concentration 10 µM): 7%
Ki [11]: 3650 ± 1050 nM
inhibition at 10 µM ([11]; single concentration 10 µM): 55%
% inhibition at 10 µM [12]: 0%
